Assay results from patent US20090023681A1, “METHOD OF USING BETA-GLUCAN FROM SCHIZOPHYLLUM COMMUNE” (priority 2007, published 2009).

Columns and labels:
[1] = tested on: human skin cells; assay: Synthesis of filaggrin by skin cells, Western blotting; format: cell-based; details: beta-glucan 0.01%, 2 days treatment, FIG. 4
Protocol: In order to examine production of a natural moisturizing factor (NMF) having an important effect on skin moisturization, synthesis of filaggrin, which is a precursor of the natural moisturizing factor, was tested on human skin cells. First, skin cells were introduced into a culture flask and allowed to adhere to the bottom of the flask. Then, cells were cultured for 2 days by co-addition of 35-S-methionine upon treatment of a test material. After the cultivation was complete, the culture medium was removed and the cells were dissolved in phosphate buffered saline (PBS) containing 2% sodium dodecyl sulfate and 20 mM dithiothreitol (DTT). After the skin cells were cultured, treatment of the cells with the test material was carried out for 2 days. After the test material treatment was complete, the medium was removed, and only the cells were taken and disrupted using an ultrasonic disintegrator to thereby obtain only a protein. Using the thus-obtained protein, an amount of synthesized filaggrin was determined by Western blotting analysis. FIG. 4 is a graph showing an expression amount of filaggrin by Western blotting analysis. Clofibrate was used as a positive control, and beta-glucan was added to a concentration of 0.01% for the test.

[2] = tested on: hairless mice; assay: Skin moisture loss (TEWL) recovery after acetone-induced skin barrier damage; format: in vivo
Protocol: This experiment was carried out to evaluate effects of beta-glucan on recovery of a skin barrier function loss due to long-term skin damage.
A barrier function of dorsal skin of experimental animals was damaged by periodic application of acetone to the dorsal parts of young hairless mice (10 weeks old) for 3 consecutive days three times a day. Trans-epidermal water loss (TEWL) was measured in the experimental animals. For only the mice having skin with more than 40 g/m′/hr of TEWL, a vehicle (propylene glycol:water=5:5) and a sample containing 0.2% beta-glucan of Example 1 were applied at a dose of 200 μl per 5 cm^2 of a skin area for 3 consecutive days three times a day, and TEWL was measured periodically.

[3] = tested on: Staphylococcus aureus; assay: Bacterial inhibition in mouse model, survival after S. aureus septic shock; format: in vivo, mice; details: 1 mg/mouse peritoneally 3 days and 1 day prior, 1×10^9 S. aureus intravenously, FIG. 6
Protocol: Skin is directly vulnerable to or may suffer from single infection with various bacteria and about 90% of atopic patients suffer from secondary infections with bacteria such as Staphylococcus spp. Therefore, there is a need for bacterial inhibition and amelioration of infectious diseases. Prior to the test of skin itching due to bacterial infections, this experiment was carried out to test whether beta-glucan has direct synergistic effects on antibacterial activity and antibiotic activity in vivo, using a mouse model.
Erythromycin was used as an antibiotic and Staphylococcus aureus, one of staphylococci as a major cause of skin infections, was used as the test bacteria. Each experimental group was composed of 6 to 7 mice per group. Experiments were carried out as follows.
1) 3 days and I day prior to bacterial challenge, 1 mg/mouse of saline, antibiotic, beta-glucan, or a beta-glucan/antibiotic mixture was peritoneally injected into mice.
2) 30 min prior to bacterial administration, 18 mg/kg of the antibiotic was subcutaneously injected into the mice.
3) Then, 1×10^9 of bacteria (S. aureus) were intravenously injected to induce septic shock.
4) Finally, a survival rate (%) of the animals was periodically confirmed every 12 hours.

[4] = at 48 hours after the bacterial infection
[5] = one week after the bacterial infection

Row | Compound | synthesis of filaggrin in skin cells [1] | recovery from skin barrier damage compared to vehicle group ([2]; 0.2% beta-glucan of Example 1, 200 μl per 5 cm^2, 3 days three times a day, FIG. 5) | recovery of the trans-epidermal water loss ([2]; after 10 hours, 0.2% beta-glucan of Example 1 topical) [%] | survival rate [3, 4] | survival rate [3, 5]
1 | beta-1,6-branched-beta-1,3-glucan [beta-glucan] | significantly increased | rapid recovery | ≥ 50 | 40% | all dead
2 | CC[C@H]1OC(=O)[C@H](C)[C@@H](O[C@H]2C[C@@](C)(OC)[C@@H](O)[C@H](C)O2)[C@H](C)[C@@H](O[C@@H]2O[C@H](C)C[C@H](N(C)C)[C@H]2O)[C@](C)(O)C[C@@H](C)C(=O)[C@H](C)[C@@H](O)[C@]1(C)O [antibiotic, Erythromycin, reference compound] | – | – | – | all killed | all dead
